US10500166B2, “Methods for the treatment of erectile dysfunction using fispemifene” (QUATRX PHARMACEUTICALS, priority 2007, dated 2019)

What was measured:
free testosterone = assay: Example 3 study in hypogonadal men: serum free testosterone measured by equilibrium dialysis (ITT); assay type: in vivo, human
Procedure: FIG. 6 depicts a graph of the data of the study from Example 3 showing serum free testosterone levels (ng/dL) measured by equilibrium dialysis over time for each of the treatment groups. The bars from left to right for each of the BL (baseline), 2 week, 4 week, and 6 week timepoints (the 6 week timepoint occurred 2 weeks after the discontinuation of study drug at week 4) correspond to the placebo, 100 mg, 200 mg, and 300 mg/day doses, respectively;
(§1) A randomized, double-blind, placebo controlled, parallel-group study of once-daily doses of fispemifene (100, 200, and 300 mg/day) given for 4 weeks was conducted in a population of hypogonadal men. Subjects were required to meet all of the following inclusion criteria at screening and prior to randomization to be eligible for the study:
(§2) There were 77 subjects total. The number of subjects randomized to the 100 mg fispemifene, 200 mg fispemifene, 300 mg fispemifene, and placebo arms were 21, 21, 19, and 16, respectively.
(§3) Subjects were randomly assigned to one of four treatment groups in a 1:1:1:1 ratio: • Treatment A (100 mg): fispemifene 100 mg+placebo+placebo; • Treatment B (200 mg): fispemifene 100 mg+fispemifene 100 mg+placebo; • Treatment C (300 mg): fispemifene 100 mg+fispemifene 100 mg+fispemifene 100 mg; and • Treatment D (Placebo): placebo+placebo+placebo.
(§4) Subjects took one dose (three capsules) of study medication once a day at home for 4 weeks. Capsules were to be taken in the morning immediately after breakfast, with the exception of the morning of the Week 4 visit. Capsules were not to be taken on the morning of the Week 4 visit because trough plasma levels of fispemifene were determined by a blood sample taken at this visit. Each subject was randomly assigned to treatment with one of the 3 different dose regimens of fispemifene or placebo vehicle. Each subject received a 4 week supply of study drug.
(§5) Blood samples were taken from the subjects within 1 week prior to dosing with study drug to establish baseline values; after 2 and 4 weeks of randomization; and 2 weeks after the last dose of study drug. Serum was prepared from those samples and used to determine the mean % change from baseline in total testosterone, free testosterone, SHBG (sex hormone-binding globulin), DHT (dihydrotestosterone), E2 (estradiol), LH (luteinizing hormone), FSH (follicle stimulating hormone), and inhibin B.
1. Percent change from baseline in free testosterone and calculated free testosterone at Weeks 2, 4, and 6;

[1] = tested on: FSH (follicle stimulating hormone); assay: Example 3 study in hypogonadal men: serum FSH (ITT); assay type: in vivo, human; settings: for FSH % Change from Baseline to Week 2, Max / FSH % Change from Baseline to Week 2, Mean ± SD / FSH % Change from Baseline to Week 2, Median / FSH % Change from Baseline to Week 2, Min / FSH % Change from Baseline to Week 4, Max / FSH % Change from Baseline to Week 4, Mean ± SD / FSH % Change from Baseline to Week 4, Median / FSH % Change from Baseline to Week 4, Min / FSH % Change from Baseline to Week 6, Max / FSH % Change from Baseline to Week 6, Mean ± SD / FSH % Change from Baseline to Week 6, Median / FSH % Change from Baseline to Week 6, Min: (Week minus Baseline) divided by Baseline, LOCF; for FSH % Change from Baseline to Week 2, Max / FSH % Change from Baseline to Week 2, Mean ± SD / FSH % Change from Baseline to Week 2, Median / FSH % Change from Baseline to Week 2, Min / FSH % Change from Baseline to Week 4, Max / FSH % Change from Baseline to Week 4, Mean ± SD / FSH % Change from Baseline to Week 4, Median / FSH % Change from Baseline to Week 4, Min / FSH % Change from Baseline to Week 6, Max / FSH % Change from Baseline to Week 6, Mean ± SD / FSH % Change from Baseline to Week 6, Median / FSH % Change from Baseline to Week 6, Min / FSH Actual Value at Baseline (Visit 2), Max / FSH Actual Value at Baseline (Visit 2), Mean ± SD / FSH Actual Value at Baseline (Visit 2), Median / FSH Actual Value at Baseline (Visit 2), Min: ITT
Procedure: as §1, §2, §3, §4, §5
3. Percent change from baseline in SHBG, DHT, E2, LH, FSH, inhibin B, and testosterone/E2 ratio at Weeks 2, 4, and 6.

[2] = 100 mg/day, Week 6 (2 weeks after discontinuation)
[3] = 200 mg/day, Week 6 (2 weeks after discontinuation)
[4] = 300 mg/day, Week 6 (2 weeks after discontinuation)

SMILES: OCCOCCOc1ccc(/C(=C(/CCCl)c2ccccc2)c2ccccc2)cc1 [Fispemifene, (Z)-2-{2-[4-(4-Chloro-1,2-diphenylbut-1-enyl)phenoxy]ethoxy}ethanol]
- Free Testosterone, Max (free testosterone; 100 mg/day, Baseline (Visit 2)): 12.20 ng/dL
- Free Testosterone, Mean ± SD (free testosterone; 100 mg/day, Baseline (Visit 2)): 8.35 ± 2.536 ng/dL
- Free Testosterone, Median (free testosterone; 100 mg/day, Baseline (Visit 2)): 8.40 ng/dL
- Free Testosterone, Min (free testosterone; 100 mg/day, Baseline (Visit 2)): 3.20 ng/dL
- Free Testosterone, Max (free testosterone; 100 mg/day, Week 2): 17.7 ng/dL
- Free Testosterone, Mean ± SD (free testosterone; 100 mg/day, Week 2): 11.6 ± 3.93 ng/dL
- Free Testosterone, Median (free testosterone; 100 mg/day, Week 2): 10.3 ng/dL
- Free Testosterone, Min (free testosterone; 100 mg/day, Week 2): 5.7 ng/dL
- Free Testosterone, Max (free testosterone; 100 mg/day, Week 4): 18.2 ng/dL
- Free Testosterone, Mean ± SD (free testosterone; 100 mg/day, Week 4): 11.3 ± 3.40 ng/dL
- Free Testosterone, Median (free testosterone; 100 mg/day, Week 4): 10.8 ng/dL
- Free Testosterone, Min (free testosterone; 100 mg/day, Week 4): 6.4 ng/dL
- Free Testosterone, Max (free testosterone; [2]): 13.30 ng/dL
- Free Testosterone, Mean ± SD (free testosterone; [2]): 8.93 ± 0.023 ng/dL
- Free Testosterone, Median (free testosterone; [2]): 9.80 ng/dL
- Free Testosterone, Min (free testosterone; [2]): 4.90 ng/dL
- Free Testosterone, % Change from Baseline, Mean ± SD (free testosterone; 100 mg/day, to Week 2): 0.4 ± 0.00387%
- Free Testosterone, Max (free testosterone; 200 mg/day, Baseline (Visit 2)): 15.90 ng/dL
- Free Testosterone, Mean ± SD (free testosterone; 200 mg/day, Baseline (Visit 2)): 8.48 ± 3.043 ng/dL
- Free Testosterone, Median (free testosterone; 200 mg/day, Baseline (Visit 2)): 8.50 ng/dL
- Free Testosterone, Min (free testosterone; 200 mg/day, Baseline (Visit 2)): 4.30 ng/dL
- Free Testosterone, Max (free testosterone; 200 mg/day, Week 2): 16.4 ng/dL
- Free Testosterone, Mean ± SD (free testosterone; 200 mg/day, Week 2): 10.6 ± 3.52 ng/dL
- Free Testosterone, Median (free testosterone; 200 mg/day, Week 2): 10.0 ng/dL
- Free Testosterone, Min (free testosterone; 200 mg/day, Week 2): 4.8 ng/dL
- Free Testosterone, Max (free testosterone; 200 mg/day, Week 4): 19.4 ng/dL
- Free Testosterone, Mean ± SD (free testosterone; 200 mg/day, Week 4): 11.8 ± 3.80 ng/dL
- Free Testosterone, Median (free testosterone; 200 mg/day, Week 4): 12.2 ng/dL
- Free Testosterone, Min (free testosterone; 200 mg/day, Week 4): 5.2 ng/dL
- Free Testosterone, Max (free testosterone; [3]): 16.80 ng/dL
- Free Testosterone, Mean ± SD (free testosterone; [3]): 9.10 ± 3.307 ng/dL
- Free Testosterone, Median (free testosterone; [3]): 8.00 ng/dL
- Free Testosterone, Min (free testosterone; [3]): 5.40 ng/dL
- Free Testosterone, Max (free testosterone; 300 mg/day, Baseline (Visit 2)): 12.30 ng/dL
- Free Testosterone, Mean ± SD (free testosterone; 300 mg/day, Baseline (Visit 2)): 8.19 ± 2.966 ng/dL
- Free Testosterone, Median (free testosterone; 300 mg/day, Baseline (Visit 2)): 8.20 ng/dL
- Free Testosterone, Max (free testosterone; 300 mg/day, Week 2): 22.0 ng/dL
- Free Testosterone, Mean ± SD (free testosterone; 300 mg/day, Week 2): 12.1 ± 4.96 ng/dL
- Free Testosterone, Median (free testosterone; 300 mg/day, Week 2): 12.9 ng/dL
- Free Testosterone, Min (free testosterone; 300 mg/day, Week 2): 0.2 ng/dL
- Free Testosterone, Max (free testosterone; 300 mg/day, Week 4): 21.2 ng/dL
- Free Testosterone, Mean ± SD (free testosterone; 300 mg/day, Week 4): 12.5 ± 5.00 ng/dL
- Free Testosterone, Median (free testosterone; 300 mg/day, Week 4): 14.0 ng/dL
- Free Testosterone, Min (free testosterone; 300 mg/day, Week 4): 0.1 ng/dL
- Free Testosterone, Max (free testosterone; [4]): 17.30 ng/dL
- Free Testosterone, Mean ± SD (free testosterone; [4]): 9.30 ± 3.567 ng/dL
- Free Testosterone, Median (free testosterone; [4]): 9.80 ng/dL
- Free Testosterone, Min (free testosterone; [4]): 0.30 ng/dL
- FSH % Change from Baseline to Week 2, Max ([1]; 100 mg): 0.76
- FSH % Change from Baseline to Week 2, Mean ± SD ([1]; 100 mg): 0.29 ± 0.222
- FSH % Change from Baseline to Week 2, Median ([1]; 100 mg): 0.27
- FSH % Change from Baseline to Week 2, Min ([1]; 100 mg): −0.13
- FSH % Change from Baseline to Week 4, Max ([1]; 100 mg): 1.12
- FSH % Change from Baseline to Week 4, Mean ± SD ([1]; 100 mg): 0.28 ± 0.296
- FSH % Change from Baseline to Week 4, Median ([1]; 100 mg): 0.24
- FSH % Change from Baseline to Week 4, Min ([1]; 100 mg): −0.09
- FSH % Change from Baseline to Week 6, Max ([1]; 100 mg): 0.610
- FSH % Change from Baseline to Week 6, Mean ± SD ([1]; 100 mg): 0.043 ± 0.2302
- FSH % Change from Baseline to Week 6, Median ([1]; 100 mg): 0.000
- FSH % Change from Baseline to Week 6, Min ([1]; 100 mg): −0.345
- FSH Actual Value at Baseline (Visit 2), Max ([1]; 100 mg): 14.90 IU/L
- FSH Actual Value at Baseline (Visit 2), Mean ± SD ([1]; 100 mg): 649 ± 3.738 IU/L
- FSH Actual Value at Baseline (Visit 2), Median ([1]; 100 mg): 5.00 IU/L
- FSH % Change from Baseline to Week 2, Max ([1]; 200 mg): 0.60
- FSH % Change from Baseline to Week 2, Mean ± SD ([1]; 200 mg): 0.33 ± 0.147
- FSH % Change from Baseline to Week 2, Median ([1]; 200 mg): 0.28
- FSH % Change from Baseline to Week 2, Min ([1]; 200 mg): 0.03
- FSH % Change from Baseline to Week 4, Max ([1]; 200 mg): 0.58
- FSH % Change from Baseline to Week 4, Mean ± SD ([1]; 200 mg): 0.32 ± 0.157
- FSH % Change from Baseline to Week 4, Median ([1]; 200 mg): 0.33
- FSH % Change from Baseline to Week 4, Min ([1]; 200 mg): 0.02
- FSH % Change from Baseline to Week 6, Max ([1]; 200 mg): 0.442
- FSH % Change from Baseline to Week 6, Mean ± SD ([1]; 200 mg): 0.050 ± 0.1657
- FSH % Change from Baseline to Week 6, Median ([1]; 200 mg): 0.022
- FSH % Change from Baseline to Week 6, Min ([1]; 200 mg): −0.167
- FSH Actual Value at Baseline (Visit 2), Max ([1]; 200 mg): 14.20 IU/L
- FSH Actual Value at Baseline (Visit 2), Mean ± SD ([1]; 200 mg): 5.91 ± 3.054 IU/L
- FSH Actual Value at Baseline (Visit 2), Median ([1]; 200 mg): 5.20 IU/L
- FSH Actual Value at Baseline (Visit 2), Min ([1]; 200 mg): 2.40 IU/L
- FSH % Change from Baseline to Week 2, Max ([1]; 300 mg): 0.78
- FSH % Change from Baseline to Week 2, Mean ± SD ([1]; 300 mg): 0.36 ± 0.233
- FSH % Change from Baseline to Week 2, Median ([1]; 300 mg): 0.31
- FSH % Change from Baseline to Week 2, Min ([1]; 300 mg): −0.21
- FSH % Change from Baseline to Week 4, Max ([1]; 300 mg): 0.60
- FSH % Change from Baseline to Week 4, Mean ± SD ([1]; 300 mg): 0.29 ± 0.206
- FSH % Change from Baseline to Week 4, Median ([1]; 300 mg): 0.28
- FSH % Change from Baseline to Week 4, Min ([1]; 300 mg): −0.24
- FSH % Change from Baseline to Week 6, Max ([1]; 300 mg): 0.395
- FSH % Change from Baseline to Week 6, Mean ± SD ([1]; 300 mg): −0.010 ± 0.1786
- FSH % Change from Baseline to Week 6, Median ([1]; 300 mg): −0.043
- FSH % Change from Baseline to Week 6, Min ([1]; 300 mg): −0.255
- FSH Actual Value at Baseline (Visit 2), Max ([1]; 300 mg): 12.30 IU/L
- FSH Actual Value at Baseline (Visit 2), Mean ± SD ([1]; 300 mg): 5.08 ± 2.931 IU/L
- FSH Actual Value at Baseline (Visit 2), Median ([1]; 300 mg): 4.10 IU/L
- FSH Actual Value at Baseline (Visit 2), Min ([1]; 300 mg): 1.80 IU/L
- effect on serum FSH levels ([1]; hypogonadal men, 100-300 mg/day for 4 weeks): increased
